Source: patent US11179391B2, “Compound with kinase inhibitory activity and preparation method and use thereof” (priority 2017, dated 2021)

How the values were obtained:
CDK7/CyclinH/MAT1 = CDK7/CyclinH/MAT1 (Homo sapiens, UniProt P50613); assay: Determination of CDK activity (Caliper mobility shift, FAM-P8 peptide): CDK7; format: biochemical; conditions: CDK7/CyclinH/MAT1; read-out: CDK7 enzymatic inhibitory activity (IC50)
Summary of the method: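 His-CDK7/GST-MAT1/cyclin H preincubated with compound (10-point series) 10 min at room temperature, then reacted with FAM-P8 peptide plus ATP at 28 °C for a set time before stopping. Peptide conversion read by Caliper mobility shift; converted to % inhibition vs controls and IC50 fitted.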

CDK1/CyclinB = CDK1/CyclinB (Homo sapiens, UniProt P06493); assay: Determination of CDK activity (Caliper mobility shift, FAM-P8 peptide): CDK1; format: biochemical; conditions: CDK1/CyclinB; read-out: CDK1 enzymatic inhibitory activity (IC50)
CDK1/CyclinB, sequence (P06493 whole entry): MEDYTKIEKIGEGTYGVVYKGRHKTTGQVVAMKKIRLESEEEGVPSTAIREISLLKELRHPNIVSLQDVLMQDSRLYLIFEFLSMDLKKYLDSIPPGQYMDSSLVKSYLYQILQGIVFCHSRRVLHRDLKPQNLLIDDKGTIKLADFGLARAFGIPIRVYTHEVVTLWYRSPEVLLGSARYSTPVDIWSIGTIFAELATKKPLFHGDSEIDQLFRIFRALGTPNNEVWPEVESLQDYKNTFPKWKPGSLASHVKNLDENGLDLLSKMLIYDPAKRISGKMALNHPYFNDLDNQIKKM
CDK1/CyclinB, sequence (P14635 whole entry partner): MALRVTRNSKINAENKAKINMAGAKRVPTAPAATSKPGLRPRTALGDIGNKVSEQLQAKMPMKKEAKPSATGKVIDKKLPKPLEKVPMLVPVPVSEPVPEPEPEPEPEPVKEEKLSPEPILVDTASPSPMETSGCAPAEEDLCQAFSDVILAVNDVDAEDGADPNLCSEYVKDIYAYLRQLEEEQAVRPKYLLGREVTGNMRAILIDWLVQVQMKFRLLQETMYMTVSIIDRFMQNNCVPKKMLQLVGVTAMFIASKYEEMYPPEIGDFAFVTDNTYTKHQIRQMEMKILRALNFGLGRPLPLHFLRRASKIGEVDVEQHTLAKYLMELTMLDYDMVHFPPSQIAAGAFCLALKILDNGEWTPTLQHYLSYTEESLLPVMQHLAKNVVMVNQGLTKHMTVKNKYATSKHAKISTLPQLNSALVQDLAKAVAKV

CDK2/CycA2 = CDK2/CycA2 (Homo sapiens, UniProt P24941); assay: Determination of CDK activity (Caliper mobility shift, FAM-P8 peptide): CDK2; format: biochemical; conditions: CDK2/CycA2; read-out: CDK2 enzymatic inhibitory activity (IC50)
CDK9/cyclinTl = CDK9/cyclinTl (Homo sapiens, UniProt P50750); assay: Determination of CDK activity (Caliper mobility shift, FAM-P8 peptide): CDK9; format: biochemical; conditions: CDK9/cyclinTl; read-out: CDK9 enzymatic inhibitory activity (IC50)
CDK9/cyclinTl, sequence (P50750 whole entry): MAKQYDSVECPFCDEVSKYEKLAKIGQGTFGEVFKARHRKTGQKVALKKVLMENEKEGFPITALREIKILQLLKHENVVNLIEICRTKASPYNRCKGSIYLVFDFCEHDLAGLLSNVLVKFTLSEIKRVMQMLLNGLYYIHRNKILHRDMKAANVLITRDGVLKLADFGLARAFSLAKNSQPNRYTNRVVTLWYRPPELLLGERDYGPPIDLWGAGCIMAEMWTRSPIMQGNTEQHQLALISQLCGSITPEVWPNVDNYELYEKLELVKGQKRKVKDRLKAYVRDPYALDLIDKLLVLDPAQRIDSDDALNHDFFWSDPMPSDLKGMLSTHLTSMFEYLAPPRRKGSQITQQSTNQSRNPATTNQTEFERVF
CDK9/cyclinTl, sequence (O60563 whole entry partner): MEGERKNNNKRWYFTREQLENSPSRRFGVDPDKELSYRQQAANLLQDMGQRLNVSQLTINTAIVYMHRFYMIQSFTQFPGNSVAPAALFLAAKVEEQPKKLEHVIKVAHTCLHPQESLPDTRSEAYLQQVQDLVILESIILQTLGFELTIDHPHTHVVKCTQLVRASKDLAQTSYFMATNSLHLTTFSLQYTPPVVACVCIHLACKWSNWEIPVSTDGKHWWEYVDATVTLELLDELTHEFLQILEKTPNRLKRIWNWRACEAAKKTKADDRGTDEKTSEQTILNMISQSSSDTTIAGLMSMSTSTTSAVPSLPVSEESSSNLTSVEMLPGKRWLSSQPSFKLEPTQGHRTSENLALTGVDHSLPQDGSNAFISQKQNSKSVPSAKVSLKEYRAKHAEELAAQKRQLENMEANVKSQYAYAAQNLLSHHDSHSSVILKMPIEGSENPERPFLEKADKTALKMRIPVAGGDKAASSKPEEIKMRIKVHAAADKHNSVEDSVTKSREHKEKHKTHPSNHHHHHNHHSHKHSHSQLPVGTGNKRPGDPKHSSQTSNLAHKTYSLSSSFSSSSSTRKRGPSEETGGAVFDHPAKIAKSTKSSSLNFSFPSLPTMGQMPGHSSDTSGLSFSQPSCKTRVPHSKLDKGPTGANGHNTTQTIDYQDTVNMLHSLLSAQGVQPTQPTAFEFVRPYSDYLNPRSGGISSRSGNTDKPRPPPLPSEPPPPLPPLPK

CDK4/CycD3 = CDK4/CycD3 (Homo sapiens, UniProt P11802); assay: Determination of CDK activity (Caliper mobility shift, FAM-P8 peptide): CDK4; format: biochemical; conditions: CDK4/CycD3; read-out: CDK4 enzymatic inhibitory activity (IC50)
CDK4/CycD3, sequence (P11802 whole entry): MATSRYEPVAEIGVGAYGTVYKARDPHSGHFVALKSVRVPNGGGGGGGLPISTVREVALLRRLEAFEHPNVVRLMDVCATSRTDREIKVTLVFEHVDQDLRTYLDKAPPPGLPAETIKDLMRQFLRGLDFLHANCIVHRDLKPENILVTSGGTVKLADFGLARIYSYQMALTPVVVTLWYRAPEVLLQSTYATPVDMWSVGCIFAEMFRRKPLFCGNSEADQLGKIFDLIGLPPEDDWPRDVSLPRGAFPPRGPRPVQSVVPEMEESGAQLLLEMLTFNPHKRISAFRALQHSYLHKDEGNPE
CDK4/CycD3, sequence (P30281 whole entry partner): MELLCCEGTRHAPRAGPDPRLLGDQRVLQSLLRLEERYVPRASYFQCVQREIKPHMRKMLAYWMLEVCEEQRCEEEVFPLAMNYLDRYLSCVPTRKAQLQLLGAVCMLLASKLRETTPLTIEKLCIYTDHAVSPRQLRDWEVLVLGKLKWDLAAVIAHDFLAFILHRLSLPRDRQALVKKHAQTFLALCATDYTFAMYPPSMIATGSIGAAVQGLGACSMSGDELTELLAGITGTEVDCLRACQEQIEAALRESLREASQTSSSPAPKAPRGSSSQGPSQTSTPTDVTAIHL
Summary of the method: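 GST-CDK4(1-303)/GST-CycD3(1-292) was preincubated with compound for 10 min at room temperature, then FAM-P8 peptide and ATP were added; the reaction ran at 28 °C and was stopped with EDTA-containing stop buffer. Peptide conversion was read by Caliper mobility shift. A 10-point dilution series was fitted for IC50.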

[1] = system: Human breast cancer MDA-MB-361 cells; assay: Pharmacodynamic study on mouse MDA-MB-361 model (subcutaneous xenograft); format: in vivo, SCID Beige mice; conditions: for inhibitory effect on the tumor growth (in words): 15 mg/kg, continuous PO administration for 28 days; for Tumor volume (day 0): baseline at start of dosing; for Tumor volume (day 0) / Tumor volume (day 28) / T/C relative tumor proliferation rate / TGI tumor growth inhibition: methanesulfonic acid salt, 15 mg/kg PO × 28 days; for T/C relative tumor proliferation rate / TGI tumor growth inhibition: day 28

CDK7/CyclinH/MAT1, sequence (P50613 whole entry): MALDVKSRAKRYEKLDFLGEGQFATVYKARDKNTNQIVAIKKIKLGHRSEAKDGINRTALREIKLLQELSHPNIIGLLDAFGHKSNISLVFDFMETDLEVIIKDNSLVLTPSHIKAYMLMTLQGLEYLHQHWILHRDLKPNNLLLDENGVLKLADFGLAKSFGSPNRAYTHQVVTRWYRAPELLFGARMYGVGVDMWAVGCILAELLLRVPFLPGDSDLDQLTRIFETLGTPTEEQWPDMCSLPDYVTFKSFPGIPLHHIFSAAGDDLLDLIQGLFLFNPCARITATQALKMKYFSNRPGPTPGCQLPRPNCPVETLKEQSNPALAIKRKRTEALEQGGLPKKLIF
CDK7/CyclinH/MAT1, sequence (P51946 whole entry partner): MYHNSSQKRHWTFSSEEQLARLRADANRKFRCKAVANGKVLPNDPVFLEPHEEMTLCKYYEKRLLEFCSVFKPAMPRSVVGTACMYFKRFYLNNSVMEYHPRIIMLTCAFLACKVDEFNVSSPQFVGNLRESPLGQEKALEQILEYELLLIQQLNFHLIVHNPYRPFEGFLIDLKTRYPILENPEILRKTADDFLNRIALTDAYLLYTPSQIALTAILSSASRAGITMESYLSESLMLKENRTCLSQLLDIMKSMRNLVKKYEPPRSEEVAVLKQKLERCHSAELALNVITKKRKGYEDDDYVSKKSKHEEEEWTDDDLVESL
CDK7/CyclinH/MAT1, sequence (P51948 whole entry partner): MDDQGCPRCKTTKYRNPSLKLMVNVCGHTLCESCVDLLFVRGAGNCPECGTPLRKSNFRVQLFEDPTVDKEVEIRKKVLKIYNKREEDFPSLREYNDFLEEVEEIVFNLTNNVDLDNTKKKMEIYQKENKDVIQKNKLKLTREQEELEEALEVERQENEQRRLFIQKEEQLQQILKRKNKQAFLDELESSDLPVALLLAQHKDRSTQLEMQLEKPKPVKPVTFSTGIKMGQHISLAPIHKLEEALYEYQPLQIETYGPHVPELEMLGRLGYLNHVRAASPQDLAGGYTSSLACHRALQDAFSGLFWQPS

Structure (SMILES) | IC50 (CDK7/CyclinH/MAT1) [nM] | IC50 (CDK1/CyclinB) [nM] | IC50 (CDK2/CycA2) [nM] | IC50 (CDK9/cyclinTl) [nM] | IC50 (CDK4/CycD3) [nM] | inhibitory effect on the tumor growth (in words) [1] | Tumor volume (day 0) [1] [mm^3] | Tumor volume (day 28) [1] [mm^3] | T/C relative tumor proliferation rate [1] [%] | TGI tumor growth inhibition [1] [%]
CCN1CCC(C(C)c2ccc(Nc3ncc(F)c(-c4cc(F)c5nc(C)n(C(C)C)c5c4)n3)nc2)CC1 (single isomer, unassigned) [Example 17, (R or S)—N-(5-(1-(1-ethylpiperidin-4-yl)ethyl)pyridin-2-yl)-5-fluoro-4-(4-fluoro-1-isopropyl-2-methyl-1H-benzo[d]imidazol-6-yl) pyrimidin-2-amine] | 1000 to 10000 | 100 to 500 | < 100 | 100 to 500 | < 100 | very strong inhibitory effect | 175 | 90 | −49 | 149
CCN1CCC(=Cc2ccc(Nc3ncc(F)c(-c4cc(F)c5nc(C)n(C(C)C)c5c4)n3)nc2)CC1 [Example 57, N-(5-((1-ethylpiperidin-4-ylidene)methyl)pyridin-2-yl)-5-fluoro-4-(4-fluoro-1-isopropyl-2-methyl-1H-benzo[d]imidazol-6-yl)pyrimidin-2-amine] | 1000 to 10000 | 100 to 500 | < 100 | < 100 | < 100 | very strong inhibitory effect | 175 | 99 | −43 | 143
